Laboratory results: PMC12362244, “Fidelity, specialization, and evolution of Paramecium PolX DNA polymerases involved in programmed double-strand break DNA repair” (Nucleic Acids Research, 2025)

Legend:
HsPolλ = biological target: T1, HsPolλ (Homo sapiens, UniProt Q9UGP5); experiment: gap-filling, FAM-primer urea-PAGE; assay type: biochemical; details: continuous template strand; 50 nM enzyme, 1 mM dGTP, 5 mM MgCl2, pH 7.5, 37°C
T1 construct: gene POLL; wild type; cleavable N-terminal 14-His tag; E. coli
T1 sequence (Q9UGP5 1-575): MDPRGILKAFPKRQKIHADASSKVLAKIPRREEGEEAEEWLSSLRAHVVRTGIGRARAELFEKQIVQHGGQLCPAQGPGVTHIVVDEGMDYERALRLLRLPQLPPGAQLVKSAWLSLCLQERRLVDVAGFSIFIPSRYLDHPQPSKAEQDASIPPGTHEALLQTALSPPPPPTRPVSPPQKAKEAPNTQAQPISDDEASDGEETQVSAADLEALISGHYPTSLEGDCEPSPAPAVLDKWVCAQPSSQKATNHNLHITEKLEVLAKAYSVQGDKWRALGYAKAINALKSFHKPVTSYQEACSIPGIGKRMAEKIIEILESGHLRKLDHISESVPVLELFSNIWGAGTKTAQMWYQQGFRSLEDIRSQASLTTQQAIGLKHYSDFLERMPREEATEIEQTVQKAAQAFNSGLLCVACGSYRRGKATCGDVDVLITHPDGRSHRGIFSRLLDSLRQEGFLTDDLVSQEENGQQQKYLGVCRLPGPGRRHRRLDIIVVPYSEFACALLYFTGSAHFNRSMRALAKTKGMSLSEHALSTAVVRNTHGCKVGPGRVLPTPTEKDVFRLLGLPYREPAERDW

PolXcΔNter = biological target: T2, PolXcΔNter (Paramecium tetraurelia, UniProt A0DCU7); experiment: gap-filling, FAM-primer urea-PAGE; assay type: biochemical; details: gap with nick in template strand; 1 nM enzyme, 1 mM dGTP, 5 mM MgCl2, pH 7.5, 27°C
T2 construct: gene GSPATT00015723001; lacks residues 1-266 (BRCT and linker); cleavable N-terminal 14-His tag; E. coli BL21 Star (DE3)
T2 sequence (A0DCU7 267-608): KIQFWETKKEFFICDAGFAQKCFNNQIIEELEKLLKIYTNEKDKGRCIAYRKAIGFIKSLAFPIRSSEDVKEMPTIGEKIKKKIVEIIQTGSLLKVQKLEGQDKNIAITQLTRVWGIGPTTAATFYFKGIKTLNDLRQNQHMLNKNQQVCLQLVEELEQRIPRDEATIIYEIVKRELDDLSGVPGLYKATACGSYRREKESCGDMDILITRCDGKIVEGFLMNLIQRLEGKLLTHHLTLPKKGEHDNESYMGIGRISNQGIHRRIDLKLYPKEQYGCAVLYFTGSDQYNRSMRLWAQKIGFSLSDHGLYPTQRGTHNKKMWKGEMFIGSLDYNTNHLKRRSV

SMILES: Nc1nc2c(ncn2[C@H]2C[C@H](O)[C@@H](COP(=O)(O)OP(=O)(O)OP(=O)(O)O)O2)c(=O)[nH]1 [dGTP]
- gap-filling, FAM-primer urea-PAGE (HsPolλ): display gap-filling activity similar to hPolλ when using a continuous template strand
- gap-filling, FAM-primer urea-PAGE (PolXcΔNter): PolXaΔNter, PolXbΔNter, and PolXcΔNter displayed the highest apparent activity
